Reference: a melting point compilation (Tetko et al.; mined from patent text by program, amines drawn as free bases though some values may be those of a salt)

SMILES	melting point
COCC1COc2cc3ncnc(Nc4cccc(Br)c4)c3cc2O1 (centres undefined)	268 to 274 °C
COc1ccccc1Oc1c(NS(=O)(=O)c2ccc(C(C)(C)C)cc2)nc(NCCN(C)C)nc1OCCOc1ncc(Br)cn1	129 to 132 °C
O=C(/C=C/c1ccc2cc[nH]c2c1)CC(=O)/C=C/c1cc(O)ccc1Br	196 to 200 °C
COCCOc1ccc(/C=C/C(=O)NS(=O)(=O)c2ccc(Cl)cc2)c(Oc2ncc(C(F)(F)F)cc2Cl)c1	182 °C
CC(C)c1cc(S(=O)(=O)c2c(Br)cc(CC(N)C(=O)O)cc2Br)ccc1O (centres undefined)	210 to 217 °C
N#Cc1nc(-c2c(Cl)cc(C(F)(F)F)cc2Cl)[nH]c1C#N	194 to 195 °C
CN1/C(=C\C(=S)NC(=O)c2ccccc2)C(C)(C)c2ccccc21	108 to 110 °C
Cc1cccc(C2(CNC(=O)Nc3c(C(C)C)cccc3C(C)C)CCC2)c1	148 to 151 °C
C=C1N(c2ccc(Cl)cc2)C(=O)OC12CCN(C(=O)N1CCN(CCO)CC1)CC2	185 to 186 °C
CC(C)n1nc(-c2sc(NC(=O)c3ccc(CNCCN4CCOCC4)cc3)nc2-c2ccccc2)ccc1=O	86 to 88 °C
Cc1sc2ncc(C(=O)/C=C/c3ccccc3)n2c1C	189 to 190 °C
CC(=O)Oc1c(C)nc(N(C)C)nc1-c1ccccc1	126 to 128 °C
CC=COC(=O)C1(S(=O)(=O)C(C)(C)C)C=CC=CC1C[C@H](N)C(=O)O (some centres undefined)	88 to 89.5 °C
COc1ccc(N=C(C#Cc2ccccc2OC)N2CCN(Cc3ccc(C)cc3)CC2)cc1	83 °C
N#Cc1cccc(CSc2nnc(-c3ccc4nccn4c3)o2)c1	175 to 176 °C
O=c1c(-c2ccccc2)ccc2n1CCSc1ccsc1-2	139 to 141 °C
CCC1c2[nH]c3ccccc3c2CC(CO)N1C(=S)SC (centres undefined)	170 to 172 °C
Cc1oc(-c2ccco2)nc1COc1ccc(COc2nn(-c3ccccc3)cc2C=O)cc1	148 to 149 °C
ClC12CCCC(C1)C1CCC2C1 (centres undefined)	68 to 69 °C
OCC1OC(n2cnc3c(NNC4COc5c(Cl)cccc5C4)ncnc32)C(O)C1O (centres undefined)	137 to 139 °C
COC(=O)/C=C/c1ccc(CC(C)NCC(O)c2cccc(C(F)(F)F)c2)cc1 (centres undefined)	80 to 83 °C
Fc1cccc(COc2nnc(-c3ccc4c(c3)CCO4)o2)c1	91 to 92 °C
CCOC(=O)c1nc(SC)n2c1c(=O)n(C)c1cc(C(F)(F)F)ccc12	202 to 204 °C

SMILES	melting point
O=C(O)COc1ccc(C(=O)c2cccc3ccccc23)c(Cl)c1Cl	173 to 175 °C
CCCc1c(OCCCOc2cccc3c2CCCC3)ccc2c1OC(CCCC(=O)O)(CCCC(=O)O)CC2=O	138 °C
O=C1N[C@@H](SC(c2ccccc2)(c2ccccc2)c2ccccc2)[C@@H]1CO (relative stereo)	160 to 162 °C
CCCc1nc(-c2cccnc2)cnc1NN	162 to 163 °C
Cc1coc(NC(=O)CCCCl)n1	98 °C
O=C(CCBr)OCN1C(=O)NC(c2ccccc2)(c2ccccc2)C1=O	133 to 134 °C
Oc1onc(CCCc2cccc(OCc3ccccc3)c2)c1C(c1ccccc1)c1ccccc1	89 to 90.5 °C
CC(C)C(c1ccc2ncc(=O)[nH]c2c1)n1ccnc1 (centres undefined)	246 °C
O=C(O)c1ccccc1CCc1cccc(Br)c1	88 to 90 °C
O=S1(=O)NCN(C2CCCCC2)c2cc(Cl)ccc21	178 to 180 °C
C#Cc1cn(C2CC(OC(=O)C(C)(C)C)C(COC(=O)C(C)(C)C)O2)c(=O)[nH]c1=O (centres undefined)	151 °C
CCCc1nc2c(C)cc(C)nc2n1Cc1ccc(-c2ccccc2-c2c(O)c(=O)c2=O)cc1	182 °C
Cn1ncc(C(=O)O)c1C(=O)Nc1ccc2nc(-c3ccccc3)nn2c1	259 °C
COCCOc1cc2ncc(C#N)c(Cl)c2cc1OC	178 to 180 °C
CC(O)C#CC1(O)C(C)C=CCC1(C)C (centres undefined)	101 to 104 °C
COc1cc2c(c3c1OC(C)(C)C3)C(c1cccc(-c3ccc(NC(C)=O)nc3)c1)=NC(C)(C)C2	208 to 209 °C
c1ccc2c(c1)cc1n2CC2(CCNC2)C1 (centres undefined)	90 to 92 °C
COC(=O)COc1ccc2c(c1)Oc1cc(O)ccc1C21OC(=O)c2ccccc21 (centres undefined)	236 °C
O=C1O[C@@H]2C[C@@]1(O)CC[C@H]2O	212 to 214 °C
Cc1cc(-c2ccccc2)nn1CCN	131 to 132 °C
COc1ccc(-c2cc(Br)c3cc(OC)ccc3n2)cc1	157 to 158 °C
CN(CC(=O)OC(C)(C)C)c1cncc(-c2nc(=O)c3ccccc3s2)n1	189 to 190 °C
CN(C)C(=N)CCCCCCCCCCCCC(=N)N(C)C	209 °C

SMILES	melting point
Cc1sc(C2=NOC(c3cc(Cl)cc(Cl)c3)(C(F)(F)F)C2)cc1C(=O)NCC(=O)NCC#N (centres undefined)	158 to 161 °C
CC(C)c1cc(C(C)C)cc(N(Cc2cccc(NC(=N)c3cccs3)c2)C(=O)CCc2cc(C(C)C)c(O)c(C(C)C)c2)c1	144 to 145 °C
COc1ccc([C@@H]2CCc3cc(OC)ccc3[C@@H]2CCCO)cc1 (relative stereo)	99 °C
CCCc1cc(C(O)(CC)CC)ccc1-c1cc(O)ccc1CC	130 °C
CCOC(=O)CSc1nc(Cl)cc(Nc2ccc(-c3ccccc3)cc2)n1	110 to 112 °C
O=C1Nc2ccc(I)cc2C1=NNC(=O)c1ccc(O[C@@H](Cc2ccccc2)C(=O)OCc2ccccc2)cc1	194 °C
CCn1c(=O)c(-c2c(Cl)cccc2Br)cc2cnc(Nc3ccccc3)nc21	210 to 214 °C
CCCCOc1ccc(C#CC2(O)CN3CCC2CC3)cn1 (centres undefined)	149 to 151 °C
CCCOc1ccc(S(=O)(=O)N2CCN(CC)CC2)cc1-c1nc2cc3ncn(Cc4ccccc4)c3cc2c(=O)[nH]1	135 to 137 °C
COC(=O)Cc1ccc(CNC(=O)C2Cc3ccccc3N2S(=O)(=O)c2ccc(-c3cccc(C(F)(F)F)c3)cc2)cc1C (centres undefined)	60 to 67 °C
CC(C)(C(N)=O)c1ccc(C(=O)O)cc1	218 to 219 °C
N#Cc1ccc(S(=O)(=O)c2ccc(S(N)(=O)=O)s2)c(F)c1	200 to 202 °C
O=C(Nc1nccs1)c1nc(-c2ccc(N3CCOCC3)cc2)[nH]c1-c1ccc(Cl)cc1	> 260 °C
Cn1nc(N)c2c(F)cccc21	125 to 127 °C
Cc1c2c(c(C(=O)c3ccc(C(C)C)cc3)c(C)c1NC(=O)CC(C)(C)C)OC(C)(C)C2	194 to 195 °C
Cc1ccc(-c2cnn(C)c2)cc1	107 to 108 °C
COc1cc2c(cc1Nc1ncc(Cl)c(Nc3ccccc3OC)n1)CCOC(=O)N2C	192 to 194 °C
COCCOc1c(S(C)(=O)=O)ccc(C(=O)O)c1Cl	89 to 92 °C
Brc1csc(N2CCCCC2)n1	66 °C
CN(C(=O)c1cnc(N2CCNC2=O)nc1N)c1cccc(C(F)(F)F)c1	249 to 250 °C
CCn1c2ccccc2c2cc(/C=C/C(=O)CC(=O)/C=C/c3ccc4c(c3)c3ccccc3n4CC)ccc21	264 to 267 °C
c1nc(Nc2ccc3[nH]ccc3c2)c2sc(-c3ccc(CNCCN4CCNCC4)cc3)cc2n1	178 to 191 °C
CN(C)C(=O)c1cc2n(n1)-c1ccc(Cl)cc1C(c1ccccc1)=NC2	176 to 178 °C
